Measurements: patent US11987569B2, “Substituted imidazoquinolines as agonists of TLR7” (BIONTECH SE, priority 2017, dated 2024)

Test system: human PBMCs
Test: IFN-α induction assay: IFN-α induction by TLR agonists in human PBMCs (Luminex)
Format: cell-based
Details: 24 h incubation, comparative compounds, Table 2
Protocol: IFN-α Induction Assay—IFN-α Induction by TLR Agonists in Human PBMCs
Materials and Devices: Bio Plex 200 Luminex device, and BioPlex Manager software; MultiScreen Filter Plates (Millipore, MABVN1250); low binding reaction vials 1.5 ml (Sarstedt, 72.706.600); Activation Buffer: 0.1M Na-dihydrogen phosphate, 0.1M Di-Na hydrogen phosphate pH 6.2; Sulfo-NHS (N-hydroxysulfosuccinimide) solution: 50 mg/ml in water (freshly prepared); EDC solution: 50 mg/ml in water (freshly prepared); Coupling Buffer: PBS; Washing Buffer: PBS+0.05% Tween20; Blocking Buffer: PBS+10 mg/ml BSA+0.05% sodium azide; Assay Buffer: PBS+10 mg/ml BSA;
In each well of a 96-well U-bottom plate 200,000 PBMCs were pre-incubated in medium (RPMI1640−Gibco #61870-044÷10% FBS+1% L-glutamine) for 5 hours at 37° C. and 5% CO2 before the compounds of the present invention or controls were added, respectively. Upon addition of compounds of the present invention or controls, the cells are incubated for another 24 h at 37° C. and 5% Co2.
Luminex assay, Step 1: Coupling of antibody to beads: • transfer a suspension (beads are stored in buffer as provided by manufacturer) of about 5 million MicroPlex Microspheres (=beads) into a low binding reaction vial • centrifuge bead suspension for 1 min at 10,000 g, discard supernatant and resuspend pellet in 160 μl Activation Buffer, repeat once • add 20 μl Sulfo-NHS solution and 20 μl EDC solution, vortex • incubate for 20 min in the absence of light • centrifuge bead suspension for 1 min at 10,000 g, discard supernatant and resuspend pellet in 500 μl Coupling Buffer, repeat once • add capture antibody (CaptureAK eBioscience #BMS160, 5 μg per 1 Mio beads) • incubate 2 h at RT in the absence of light while swaying • centrifuge bead suspension for 1 min at 10,000 g, discard supernatant and resuspend pellet in 500 μl Washing Buffer, repeat once • centrifuge bead suspension for 1 min at 10,000 g, discard supernatant and resuspend pellet in 100 μl Blocking Buffer
Luminex Assay, Step 2: Measurement • add 100 μl Assay Buffer into each filter plate well (seal any unused wells with adhesive tape), then remove buffer • add about 2,000 beads per well per analyte (per analyte, a different bead type with distinct fluorescence color is used), suspended in 50 μL of Assay Buffer • remove buffer and wash twice with 100 μl Washing Buffer per well • per well, add 50 μl sample solution from the (pre-)incubation step (cell supernatant), or Standard (IFN-α standard eBioscience #BMS216MST—concentration gradient, highest standard concentration 2500 pg/ml) or Assay Buffer (as blanks) • shake plate • incubate plate for 2 h at RT in the absence of light, while swaying the plate • wash three times with 100 μl Washing Buffer per well • add 25 μl antibody detection mix (DetectionAK eBioscience #BMS1016BT diluted 1:1000) in Assay Buffer per well, then vortex plate • incubate plate for 1 h at RT in the absence of light, while swaying the plate • wash three times with 100 μl Washing Buffer per well • add 50 μl Streptavidin/PE (diluted 1:200 in Assay Buffer) per well, then vortex plate • incubate plate for 10 min at RT in the absence of light, while swaying the plate • wash three times with 100 μl Washing Buffer per well • add 100 μl Assay Buffer per well, then vortex plate • start Luminex measurement according to manufacturer's instructions, measuring at least 50 beads per well per analyte
The compounds were tested at 8 different concentrations (1 μM, 0.3 μM, 0.1 μM, 0.03 μM, 0.01 μM 0.003 μM, 0.001 μM, 0.0003 μM) using a half-logarithmic dilution. The release of Interferon-alpha (IFN-α) presents a bell-shaped distribution within the dilution window. The minimum effective concentration (MEC) is the lowest concentration required to induce the desired IFN-α release. It represents the outset of the bell-shaped distribution and is given in nM. […]

| SMILES | Minimum effective concentration IFN-α release |
| --- | --- |
| CCNCc1nc2c(N)nc3ccccc3c2n1CCCCN(C(C)=O)C1CCS(=O)(=O)C1 (stereo not drawn) [10′, reference compound] | inactive |
| CCNCc1nc2c(N)nc3ccccc3c2n1CCCCN(C(=O)OC)C1CCS(=O)(=O)C1 (stereo not drawn) [11′, reference compound] | inactive |

Same assay, conditions: PBMC, 24 h incubation, comparative compounds, Table 2, read-out: Minimum effective concentration IFN-α release

| SMILES | minimal effective concentration |
| --- | --- |
| CCNCc1nc2c(N)nc3ccccc3c2n1CCCCN(C(N)=O)C1CCS(=O)(=O)C1 (stereo not drawn) [12′, reference compound] | 10 µM |
| COCCc1nc2c(N)nc3ccccc3c2n1CCCCN(C(C)=O)C1CCS(=O)(=O)C1 (stereo not drawn) [13′, reference compound] | 0.03 µM |
| CCc1nc2c(N)nc3ccccc3c2n1CCCCN(C(=O)OC)C1CCS(=O)(=O)C1 (stereo not drawn) [8′, reference compound] | 0.1 µM |
| COCCc1nc2c(N)nc3ccccc3c2n1CCCCN(C(N)=O)C1CCS(=O)(=O)C1 (stereo not drawn) [15′, reference compound] | 0.1 µM |
| CCc1nc2c(N)nc3ccccc3c2n1CCCCN(C(N)=O)C1CCS(=O)(=O)C1 (stereo not drawn) [9′, reference compound] | 0.3 µM |
| COCCc1nc2c(N)nc3ccccc3c2n1CCCCN(C(=O)OC)C1CCS(=O)(=O)C1 (stereo not drawn) [14′, reference compound] | 0.01 µM |
| CCc1nc2c(N)nc3ccccc3c2n1CCCCN(C(C)=O)C1CCS(=O)(=O)C1 (stereo not drawn) [7′, N-[4-(4-amino-2-ethyl-1H-imidazo[4,5-c]quinolin-1-yl)butyl]-N-(1,1-dioxidotetrahydro-3-thienyl)acetamide, reference compound] | 0.3 µM |

Same assay, conditions: PBMC, 24 h incubation, lowest concentration inducing the desired IFN-α release, Table 1, read-out: Minimum effective concentration IFN-α release

| SMILES | minimal effective concentration |
| --- | --- |
| CCc1nc2c(N)nc3ccccc3c2n1CCCCN(C(N)=O)C1CS(=O)(=O)C1 [Example 9, 1-(4-(4-Amino-2-ethyl-1H-imidazo[4,5-c]quinolin-1-yl)butyl)-1-(1,1-dioxidothietan-3-yl)urea] | 0.1 µM |
| CCNCc1nc2c(N)nc3ccccc3c2n1CCCCN(C(=O)OC)C1CS(=O)(=O)C1 [Example 11, Methyl (4-(4-amino-2-((ethylamino)methyl)-1H-imidazo[4,5-c]quinolin-1-yl)butyl)(1,1-dioxidothietan-3-yl)carbamate] | 0.1 µM |
| CCNCc1nc2c(N)nc3ccccc3c2n1CCCCN(C(N)=O)C1CS(=O)(=O)C1 [Example 12, 1-(4-(4-Amino-2-((ethylamino)methyl)-1H-imidazo[4,5-c]quinolin-1-yl)butyl)-1-(1,1-dioxidothietan-3-yl)urea] | 3 µM |
| COCCc1nc2c(N)nc3ccccc3c2n1CCCCN(C(=O)OC)C1CS(=O)(=O)C1 [Example 14, Methyl (4-(4-amino-2-(2-methoxyethyl)-1H-imidazo[4,5-c]quinolin-1-yl)butyl)(1,1-dioxidothietan-3-yl)carbamate] | 0.001 µM |
| CCc1nc2c(N)nc3ccccc3c2n1CCCCN(C(C)=O)C1CS(=O)(=O)C1 [Example 7, N-(4-(4-Amino-2-ethyl-1H-imidazo[4,5-c]quinolin-1-yl)butyl)-N-(1,1-dioxidothietan-3-yl)acetamide] | 0.1 µM |
| COCCc1nc2c(N)nc3ccccc3c2n1CCCCN(C(N)=O)C1CS(=O)(=O)C1 [Example 15, 1-(4-(4-Amino-2-(2-methoxyethyl)-1H-imidazo[4,5-c]quinolin-1-yl)butyl)-1-(1,1-dioxidothietan-3-yl)urea] | 0.02 µM |
| COCCc1nc2c(N)nc3ccccc3c2n1CCCCN(C(C)=O)C1CS(=O)(=O)C1 [Example 13, N-(4-(4-Amino-2-(2-methoxyethyl)-1H-imidazo[4,5-c]quinolin-1-yl)butyl)-N-(1,1-dioxidothietan-3-yl)acetamide] | 0.01 µM |
| CCNCc1nc2c(N)nc3ccccc3c2n1CCCCN(C(C)=O)C1CS(=O)(=O)C1 [Example 10, N-(4-(4-Amino-2-((ethylamino)methyl)-1H-imidazo[4,5-c]quinolin-1-yl)butyl)-N-(1,1-dioxidothietan-3-yl)acetamide] | 1 µM |
| CCc1nc2c(N)nc3ccccc3c2n1CCCCN(C(=O)OC)C1CS(=O)(=O)C1 [Example 8, Methyl (4-(4-amino-2-ethyl-1H-imidazo[4,5-c]quinolin-1-yl)butyl)(1,1-dioxidothietan-3-yl)carbamate] | 0.03 µM |

Test system: IFN-α secretion
Test: In vivo profiling: plasma IFN-α after single intravenous infusion in cynomolgus monkeys (ELISA)
Details: cynomolgus monkey, single dose 0.3 mg/kg (smallest dose tested), 30 min i.v. infusion
Protocol: In the following studies, a compound according to the invention was examined in an in vivo cynomolgus monkey model. It is evaluated whether and at which applied dose the compounds cause secretion of IFN-α.
In particular, a defined single dose of test compound was applied intravenously to cynomolgus monkeys by a thirty minute infusion. At several time points after initiation of the intravenous compound application, blood samples (0.5 mL for approximately 0.25 mL plasma) were collected from the vena cephalica antebrachii or vena saphena into K3EDTA tubes from the animals. Blood samples were stored on crushed ice prior to centrifugation. Plasma was obtained by centrifugation at 4° C. and approximately 1800 g for 10 minutes and was aliquoted into labeled micro tubes and stored frozen at −70° C. or below. Plasma samples were thawed, diluted and used for determination of IFN-α levels using an IFN-α Elisa Kit (e.g. VeriKine™ Cynomolgus/Rhesus IFN-α ELISA Kit) according to the manufacturer's instructions.

| SMILES | peak plasma IFN-α concentration |
| --- | --- |
| CCc1nc2c(N)nc3ccccc3c2n1CCCCN(C(C)=O)C1CS(=O)(=O)C1 [Example 7, N-(4-(4-Amino-2-ethyl-1H-imidazo[4,5-c]quinolin-1-yl)butyl)-N-(1,1-dioxidothietan-3-yl)acetamide] | about 5000 pg/ml |

Same assay, conditions: cynomolgus monkey, single dose 10 mg/kg, 30 min i.v. infusion

| SMILES | peak plasma IFN-α concentration |
| --- | --- |
| CCc1nc2c(N)nc3ccccc3c2n1CCCCN(C(C)=O)C1CS(=O)(=O)C1 [Example 7, N-(4-(4-Amino-2-ethyl-1H-imidazo[4,5-c]quinolin-1-yl)butyl)-N-(1,1-dioxidothietan-3-yl)acetamide] | about 30,000 pg/ml |

Test system: superficial basal cell carcinomas
Test: not given
Details: marketed as 5% cream (Aldara); cited from earlier work

| SMILES | 5-year clearance of superficial basal cell carcinomas |
| --- | --- |
| CC(C)Cn1cnc2c(N)nc3ccccc3c21 [Imiquimod, imiquimod] | approx. 80% |
